Data from patent publication US8951340B2, “Water-insoluble coloring matter compound, ink using the water-insoluble coloring matter compound, thermal transfer recording sheet and resist composition for color filter” (Canon Kabushiki Kaisha, priority 2011, dated 2015).
Where two headings read alike, the source gives them in different places.

Tests used:
[1] = Solubility in water of the compound at room temperature and at 60° C.; assay type: physicochemical; details: mass percentage
Description: The water-insoluble coloring matter compound represented by the formula (1) according to the present invention has high affinity for an organic solvent. In the present invention, “water-insoluble” means that solubility in water is less than 1% in terms of mass percentage.

[2] = Evaluation of solubility of compound for solvent (30 mg in 0.7 mL, visually observed); assay type: physicochemical; details: organic solvent or mixture, thermodynamic from solid, room temperature, visual
Protocol: 30 mg of each of water-insoluble coloring matter compounds (1), (4), (6), (8) to (10), (14), (15), (20), and (21) and comparative compounds (1) to (3) was dissolved at room temperature in 0.7 mL of toluene, 0.7 mL of methanol, 0.7 mL of ethyl acetate, and 0.7 mL of chloroform, respectively. These solutions were visually observed, and the solubility of the compound for the solvent was evaluated.
A: completely dissolved (solubility is very good)
B: slightly suspended (solubility is good)
C: not dissolved at all (solubility is bad)

[3] = 30 mg in 0.7 mL chloroform, read-out: Solubility Chloroform
[4] = 30 mg in 0.7 mL ethyl acetate, read-out: Solubility Ethyl acetate
[5] = 30 mg in 0.7 mL methanol, read-out: Solubility Methanol
[6] = 30 mg in 0.7 mL toluene, read-out: Solubility Toluene

solubility in water ([1]; 60° C.)	solubility in water ([1]; room temperature)	solubility [2, 3] [mg/mL]	solubility [2, 4] [mg/mL]	solubility [2, 5] [mg/mL]	solubility [2, 6] [mg/mL]	Compound
less than 1%	less than 1%					CCCCNc1ccc2c3c1C(=O)c1ccccc1-c3c(C(=O)c1ccccc1)c(=O)n2CCCC [Compound (21)]
less than 1%	less than 1%					CCCCC(CC)CNc1ccc2c3c1C(=O)c1ccccc1-c3c(C(=O)c1ccccc1)c(=O)n2CCCC (stereo not drawn) [Compound (4)]
less than 1%	less than 1%					CCCCOCCCNc1ccc2c3c1C(=O)c1ccccc1-c3c(C(=O)c1ccccc1)c(=O)n2CC(CC)CCCC (stereo not drawn) [Compound (10)]
		< 42.9	< 42.9	< 42.9	< 42.9	CCCCn1c(=O)c(C(=O)c2ccccc2)c2c3c(c(Nc4ccc(C)cc4)ccc31)C(=O)c1ccccc1-2 [(3)]
less than 1%	less than 1%					CCCCC(CC)CNc1ccc2c3c1C(=O)c1ccccc1-c3c(C(=O)c1ccccc1)c(=O)n2CC(CC)CCCC (stereo not drawn) [Compound (8)]
		< 42.9	< 42.9	< 42.9	< 42.9	Cc1ccc(Nc2ccc3c4c(cc(=O)n3C)-c3ccccc3C(=O)c24)cc1 [(2)]
		< 42.9	< 42.9	< 42.9	< 42.9	Cn1c(=O)cc2c3c(c(Nc4ccccc4)ccc31)C(=O)c1ccccc1-2 [(1)]
less than 1%	less than 1%					CCCCC(CC)CNc1ccc2c3c1C(=O)c1ccccc1-c3c(C(=O)c1ccc(OC)cc1)c(=O)n2CCCC (stereo not drawn) [Compound (6)]
less than 1%	less than 1%					CCCCC(CC)CNc1ccc2c3c1C(=O)c1ccccc1-c3c(C(=O)c1ccccc1)c(=O)n2C (stereo not drawn) [Compound (14)]
less than 1%	less than 1%					CCCCC(CC)CNc1ccc2c3c1C(=O)c1ccccc1-c3c(C(C)=O)c(=O)n2CCCC (stereo not drawn) [Compound (1)]
less than 1%	less than 1%					CCCCC(CC)Cn1c(=O)c(C(=O)c2ccccc2)c2c3c(c(NC4CCCCC4)ccc31)C(=O)c1ccccc1-2 (stereo not drawn) [Compound (15)]
less than 1%	less than 1%					CCCCC(CC)CNc1ccc2c3c1C(=O)c1ccccc1-c3c(C(=O)OCC)c(=O)n2CC(CC)CCCC (stereo not drawn) [Compound (9)]
